Laboratory results from PubChem BioAssay (NCI).
Several values for one entry are separate records, joined by “and”; a condition that tells them apart may be missing. Identical values can stand only once.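 Five compound concentrations were applied to cells in 96-well plates for 48 hours; endpoints were derived by simple linear interpolation of the resulting dose-response curve. GI50 is the concentration that inhibits growth by half. TGI: concentration producing complete growth inhibition.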

Key:
Assay in all cases: growth of human tumour cells (NCI), 48 h
SN12C renal = tested on: SN12C renal
HCT-116 colon = tested on: HCT-116 colon
M19-MEL melanoma = tested on: M19-MEL melanoma
KM20L2 colon = tested on: KM20L2 colon
SR leukemia = tested on: SR leukemia
OVCAR-5 ovarian = tested on: OVCAR-5 ovarian
DLD-1 colon = tested on: DLD-1 colon
T-47D breast = tested on: T-47D breast
BT-549 breast = tested on: BT-549 breast
NCI/ADR-RES ovarian = tested on: NCI/ADR-RES ovarian

| Compound | TGI (SN12C renal) [µM] | TGI (HCT-116 colon) [µM] | TGI (M19-MEL melanoma) [µM] | TGI (KM20L2 colon) [µM] | TGI (SR leukemia) [µM] | TGI (OVCAR-5 ovarian) | TGI (DLD-1 colon) [µM] | GI50 (SN12C renal) [µM] | GI50 (HCT-116 colon) [µM] | GI50 (T-47D breast) [µM] | TGI (T-47D breast) [µM] | GI50 (BT-549 breast) [µM] | TGI (BT-549 breast) [µM] | GI50 (SR leukemia) [µM] | GI50 (NCI/ADR-RES ovarian) [µM] | TGI (NCI/ADR-RES ovarian) [µM] | GI50 (DLD-1 colon) [µM] | GI50 (M19-MEL melanoma) [µM] | GI50 (KM20L2 colon) [µM] | GI50 (OVCAR-5 ovarian) [µM] |
| --- | --- | --- | --- | --- | --- | --- | --- | --- | --- | --- | --- | --- | --- | --- | --- | --- | --- | --- | --- | --- |
| CCC1C2C=CC(CC2)N1S(=O)(=O)c1ccc(C)cc1 (stereo not drawn) | 36.6 | > 100 | > 100 | 38.2 | 72.3 | 79 µM |  |  |  |  |  |  |  |  |  |  |  |  |  |  |
| O=C(Nc1cc(Cl)ccc1Cl)c1cc2cccc(Cl)c2oc1=O | > 100 | > 100 | > 100 | > 100 |  |  | > 100 |  |  |  |  |  |  |  |  |  |  |  |  |  |
| N=c1ccn2c(n1)OC1C(O)C(CO)OC12 (stereo not drawn) | > 621 | > 1000 | > 1000 | > 562 | > 231 | 380 µM and > 100 µM | > 1000 | 3.13 | 0.164 | 16.8 | > 1000 | > 100 | > 1000 | 2.6 | 0.659 | > 753 |  |  |  |  |
| CC(=O)n1c2c(c(=O)n1-c1ccccc1)S(=O)CCC2 (stereo not drawn) | > 100 | > 100 | > 100 | > 100 | 22.8 | > 100 µM | > 100 |  |  |  |  |  |  |  |  |  |  |  |  |  |
| Cc1ccc(Cn2c(C)nc3c2C(=O)c2ccccc2C3=O)cc1 | > 100 | 16.3 | 21.1 | > 100 | > 100 |  | > 100 |  |  |  |  |  |  |  |  |  |  |  |  |  |
| O=C(NC(=O)c1cn(CCNCCO)c(=O)[nH]c1=O)OCc1ccccc1 | > 100 | > 100 | > 100 |  | > 100 | > 100 µM | > 100 |  |  |  |  |  |  |  |  |  |  |  |  |  |
| O=C(N/N=C1/C(=O)N(c2ccc(Cl)cc2Cl)C(=O)C(=O)C1c1nc2ccccc2o1)c1ccccc1O (stereo not drawn) | > 100 | > 100 | > 100 | > 100 | > 100 | > 100 µM | > 100 |  |  |  |  |  |  |  |  |  |  |  |  |  |
| CCCCCCC[CH2][Sn]1([CH2]CCCCCCC)[O]C(=O)c2cccnc2[S]1 | > 100 | > 100 | > 100 | > 100 | > 100 | > 100 µM | > 100 | > 100 | > 100 |  |  |  |  | > 100 |  |  | > 100 | > 100 | > 100 | > 100 |
| COC(=O)[C@]1(C)CCCC2(C)C1CC[C@H]1C=C(C)[C@H]3CCC12C3 (stereo partly drawn) | > 100 | > 100 |  | > 100 | > 100 | > 100 µM | > 100 |  |  |  |  |  |  |  |  |  |  |  |  |  |
